According to the supplement of paper PMC10307832:

Key:
Assay in all cases: relative viability (nuclei count vs DMSO), 5 days (fraction); higher = more cells survive
[1] = compound: C=CCc1cccc(/C=N/NC(=O)CN2CCN(Cc3ccccc3)CC2)c1O [PAC-1] + N=C(N)NC(=N)NCCc1ccccc1 [Phenformin] (partner 250 µM)
Summary of the method: (§1)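 The day after seeding in 1536-well plates, lung cancer cell lines were treated by pin tool with a single drug, or with a fixed anchor-drug dose together with five library-drug doses (not always all listed) in √10 steps. After 5 days, a combined fix-and-stain solution (final 0.05% Triton X-100, 1% formaldehyde, 1 ug/ml Hoechst) was added. Nuclei counted on 4× images gave relative viability as treated counts over vehicle counts, reported as the median of duplicate plates.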

[2] = compound: C=CC(=O)N1CCC[C@@H](n2nc(-c3ccc(Oc4ccccc4)cc3)c3c(N)ncnc32)C1 [Ibrutinib] + CC(=O)Nc1cccc(-n2c(=O)n(C3CC3)c(=O)c3c(Nc4ccc(I)cc4F)n(C)c(=O)c(C)c32)c1 [Trametinib] (partner 0.02 µM)
Summary of the method: as §1

[3] = compound: C=CC(=O)Nc1cc(-n2c(=O)ccc3cnc4ccc(-c5ccc(NS(C)(=O)=O)cc5)cc4c32)ccc1C [BMX-IN-1] + Cc1nc(Nc2ncc(C(=O)Nc3c(C)cccc3Cl)s2)cc(N2CCN(CCO)CC2)n1 [Dasatinib] (partner 0.075 µM)
Summary of the method: as §1

[4] = compound: C=CCc1cccc(/C=N/NC(=O)CN2CCN(Cc3ccccc3)CC2)c1O [PAC-1] + O=C(c1cc(Cc2n[nH]c(=O)c3ccccc23)ccc1F)N1CCN(C(=O)C2CC2)CC1 [Olaparib] (partner 8 µM)
Summary of the method: as §1

Cell Line | relative viability ([1]; first compound 0.02 µM) | relative viability ([1]; first compound 0.06325 µM) | relative viability ([1]; first compound 0.2 µM) | relative viability ([1]; first compound 2 µM) | relative viability ([2]; first compound 0.005 µM) | relative viability ([2]; first compound 0.01581 µM) | relative viability ([2]; first compound 0.05 µM) | relative viability ([2]; first compound 0.1581 µM) | relative viability ([2]; first compound 0.5 µM) | relative viability ([3]; first compound 0.02 µM) | relative viability ([3]; first compound 0.2 µM) | relative viability ([3]; first compound 0.6325 µM) | relative viability ([3]; first compound 2 µM) | relative viability ([4]; first compound 0.02 µM) | relative viability ([4]; first compound 0.06325 µM) | relative viability ([4]; first compound 0.2 µM) | relative viability ([4]; first compound 2 µM)
HCC-827 | 0.383 | 0.402 | 0.368 | 0.4 | 0.49 | 0.489 | 0.416 | 0.509 | 0.196 | 0.296 | 0.277 | 0.371 | 0.276 | 0.65 | 0.696 | 0.6 | 0.646
EBC-1 |  |  |  |  |  |  |  |  |  |  |  |  |  | 0.551 | 0.713 | 0.713 | 0.649
NCI-H647 | 0.609 | 0.504 | 0.431 | 0.571 | 0.415 | 0.445 | 0.478 | 0.443 | 0.529 | 0.197 | 0.24 | 0.277 | 0.174 | 0.616 | 0.492 | 0.544 | 0.236
A549 | 0.22 | 0.167 | 0.139 | 0.171 |  |  |  |  |  |  |  |  |  | 0.344 | 0.353 | 0.285 | 0.477
NCI-H661 | 0.255 | 0.299 | 0.278 | 0.29 | 0.509 | 0.478 | 0.436 | 0.532 | 0.433 | 0.993 | 0.852 | 1 | 0.946 | 0.664 | 0.721 | 0.684 | 0.505
NCI-H1651 | 0.364 | 0.341 | 0.29 | 0.333 | 0.858 | 0.807 | 0.765 | 0.776 | 0.773 | 0.213 | 0.515 | 0.435 | 0.406 | 0.149 | 0.2 | 0.181 | 0.193
HCC-78 | 0.8 | 0.639 | 0.809 | 0.759 |  | 0.569 | 0.622 | 0.698 | 0.706 | 0.379 | 0.421 | 0.37 | 0.462 | 0.8 | 0.893 | 0.874 | 0.827
NCI-H2085 | 0.747 | 0.757 | 0.723 | 0.815 | 0.499 | 0.548 | 0.566 | 0.661 | 0.463 | 0.246 | 0.223 | 0.236 | 0.227 | 0.728 | 0.74 | 0.74 | 0.831
NCI-H2228 | 0.303 | 0.303 | 0.306 | 0.318 | 0.379 | 0.488 | 0.412 | 0.55 | 0.298 | 0.497 | 0.672 | 0.593 | 0.561 | 0.619 | 0.607 | 0.619 | 0.646
LU99A | 0.824 | 0.761 | 0.908 | 0.874 | 0.532 | 0.575 | 0.528 | 0.574 | 0.553 | 0.646 | 0.56 | 0.793 | 0.555 | 0.247 | 0.282 | 0.271 | 0.257
NCI-H522 | 0.78 | 0.662 | 0.693 | 0.631 | 0.757 | 0.714 | 0.661 | 0.71 | 0.57 | 0.894 | 1.02 | 0.89 | 0.821 | 0.591 | 0.643 | 0.619 | 0.626
